Test results taken from patent US20050192281A1, “Nitrone compounds, prodrugs and pharmaceuticals compositons of the same to treat human disorders” (priority 2003, published 2005).
Counter-ions that a name gives are not always drawn.

Assay: Free radical-scavenging/antioxidant assay (DPPH)
Format: biochemical
Settings: 50 μM DPPH in 80% methanol, absorbance at 520 nm, 24 h time point (steady state)
Protocol: Nitrone compounds of the present invention were tested for their free-radical scavenging/antioxidant activity in an in vitro assay that was accepted by those skilled in the art as a model for conditions involving the generation of free radicals. The assay was based on a reaction between a free-radical donor, 2,2-diphenyl-1-picrylhydrazyl (DPPH), and a radical scavenger/antioxidant to be tested for free-radical scavenging activity. Upon donation of the free-radical electron to the purported radical scavenger, the peak vwasible absorbance of DPPH (515-520 nm) decreases so that optical density readings at thwas part of the vwasual spectrum reflect the progression of the following reaction: DPPH•+AH →DPPH—H+A• where AH was a hypothetical radical scavenger/antioxidant. The assay was based on a protocol originally detailed in Brand-Williams, W. et al., 1995, Use of a Free Radical Method to Evaluate Antioxidant Activity, Lebensm. Wwass. Technol., 28:25-30, with further modifications described in L. R. Fukumoto and G. Mazza, 2000, Assessing Antioxidant and Prooxidant Activities of Phenolic Compounds, J. Agric. Food Chem., 48:3597-3604.
The antioxidant assay was performed using Perkin-Elmer 96-well, clear-bottom, black-wall plates (ordered from E & K Scientific Products) and a Tecan Safire absorbance plate reader. The positive controls were Trolox (6-hydroxy-2,5,7,8-tetramethylchromane-2-carboxylic acid, Sigma-Aldrich), BHA (2(3)-tert-butylhydroquinone monomethyl ether, Sigma-Aldrich), PBN (C-(phenyl)-N-(tert-butyl)nitrone, Sigma-Aldrich) and S-PBN (C-(2-sulfophenyl)-N-(tert-butyl)nitrone, sodium salt, prepwered according to E. G. Janzen and R. V. Shetty, 1979, Tetrahedron Lett., 35: 3229-32), and the negative control (i.e., vehicle) was DMSO. In brief, 2 μL of 100×DMSO stock of the desired final concentration of each control or nitrone compound to be tested in the same batch was added to a separate well. To each well was then added 198 μL of a freshly made 50 μM DPPH (Sigma-Aldrich) solution in 80% methanol using a multi-channel pipette. The absorbance was immediately read on the plate reader at 520 nm and thereafter read periodically to assess kinetics until all reactions reached completion (i.e., steady state). Since the steady-state point was 24 h, the assay results were shown from the 24 h time point. The absorbance at 520 nm (OD) was plotted versus the concentrations of the controls and nitrone compounds to assess dose-response and interpolate the EC50 values of the controls and test compounds.

EC50 [µM] | SMILES
10 to 50 | CC(C)(C)/[N+]([O-])=C/COc1ccccc1 [Example 1, N-tert-Butyl-C-(phenoxymethyl)nitrone]
50 to 100 | [O-]/[N+](=C\COc1ccccc1)C1CCCCC1 [Example 2, N-Cyclohexyl-C-(phenoxymethyl)nitrone]
10 to 50 | [O-]/[N+](=C\COc1ccccc1)Cc1ccccc1 [Example 3, N-Benzyl-C-(phenoxymethyl)nitrone]
10 to 50 | COc1ccc(OC/C=[N+](\[O-])C(C)(C)C)cc1 [Example 4, N-tert-Butyl-C-[(4-methoxy-phenoxy)methyl]nitrone]
< 10 | COc1ccc(OC/C=[N+](\[O-])C2CCCCC2)cc1 [Example 5, N-Cyclohexyl-C-[(4-methoxy-phenoxy)methyl]nitrone]
< 10 | COc1ccc(OC/C=[N+](\[O-])Cc2ccccc2)cc1 [Example 6, N-Benzyl-C-[(4-methoxy-phenoxy)methyl]nitrone]
50 to 100 | Cc1ccc(C(C)C)c(OC/C=[N+](\[O-])C(C)(C)C)c1 [Example 7, N-tert-Butyl-C-[(2-isopropyl-5-methyl-phenoxy)methyl]nitrone]
10 to 50 | Cc1ccc(C(C)C)c(OC/C=[N+](\[O-])C2CCCCC2)c1 [Example 8, N-Cyclohexyl-C-[(2-isopropyl-5-methyl-phenoxy)methyl]nitrone]
50 to 100 | Cc1ccc(C(C)C)c(OC/C=[N+](\[O-])Cc2ccccc2)c1 [Example 9, N-Benzyl-C-[(2-isopropyl-5-methyl-phenoxy)methyl]nitrone]
10 to 50 | Cc1ccc(SC/C=[N+](\[O-])C(C)(C)C)cc1 [Example 10, N-tert-Butyl-C-[(4-methyl-thiophenoxy)methyl]nitrone]
10 to 50 | CC(C)(C)/[N+]([O-])=C/COc1ccccn1 [Example 11, N-tert-Butyl-C-(pyridin-2-yloxy)methyl nitrone]
< 10 | [O-]/[N+](=C\COc1ccccn1)C1CCCCC1 [Example 12, N-Cyclohexyl-C-(pyridin-2-yloxy)methyl nitrone]
< 10 | [O-]/[N+](=C\COc1ccccn1)Cc1ccccc1 [Example 13, N-Benzyl-C-(pyridin-2-yloxy)methyl nitrone]
50 to 100 | CC(C)(C)/[N+]([O-])=C/COc1nccc2ccccc12 [Example 14]
10 to 50 | [O-]/[N+](=C\COCc1ccccc1)C1CCCCC1 [Example 15, N-Cyclohexyl-C-(benzyloxy)methyl nitrone]
50 to 100 | [O-]/[N+](=C\COCc1ccccc1)Cc1ccccc1 [Example 16, N-Benzyl-C-(benzyloxy)methyl nitrone]
10 to 50 | CC(C)(C)/[N+]([O-])=C/CCOc1ccccc1 [Example 17, N-tert-Butyl-C-2-(phenoxy)ethyl nitrone]
> 1000 | [O-]/[N+](=C\CCOc1ccccc1)C1CCCCC1 [Example 18, N-Cyclohexyl-C-2-(phenoxy)ethyl nitrone]
100 to 1000 | [O-]/[N+](=C\CCOc1ccccc1)Cc1ccccc1 [Example 19, N-Benzyl-C-2-(phenoxy)ethyl nitrone]
< 10 | CC(C)(C)/[N+]([O-])=C/CCSc1ccccc1 [Example 20, N-tert-Butyl-C-2-(phenylsulfanyl)ethyl nitrone]
10 to 50 | [O-]/[N+](=C\CCSc1ccccc1)Cc1ccccc1 [Example 21, N-Benzyl-C-2-(phenylsulfanyl)ethyl nitrone]
< 10 | CC(C/C=[N+](\[O-])C(C)(C)C)Sc1ccccc1 (stereo not drawn) [Example 22, N-tert-Butyl-C-2-(phenylsulfanyl)propyl nitrone]
10 to 50 | CC(C/C=[N+](\[O-])C1CCCCC1)Sc1ccccc1 (stereo not drawn) [Example 23, N-Cyclohexyl-C-2-(phenylsulfanyl)propyl nitrone]
< 10 | CC(C/C=[N+](\[O-])Cc1ccccc1)Sc1ccccc1 (stereo not drawn) [Example 24, N-Benzyl-C-2-(phenylsulfanyl)propyl nitrone]
10 to 50 | CC(C)(C)/[N+]([O-])=C/CCOc1ccccn1 [Example 25, N-tert-Butyl-C-2-(pyridin-2-yloxy)ethyl nitrone]
10 to 50 | CC(C)(C)/[N+]([O-])=C/COCc1ccccc1 [Example 26, N-tert-Butyl-C-(benzyloxy)methyl nitrone]
> 1000 | CC(C)(C)/[N+]([O-])=C/c1ccccc1 [PBN, C-(phenyl)-N-(tert-butyl)nitrone, reference compound]
> 1000 | CC(C)(C)/[N+]([O-])=C/c1ccccc1S(=O)(=O)O [SPBN, C-(2-sulfophenyl)-N-(tert-butyl)nitrone, sodium salt, reference compound]
< 10 | Cc1c(C)c2c(c(C)c1O)CCC(C)(C(=O)O)O2 (stereo not drawn) [Trolox, 6-hydroxy-2,5,7,8-tetramethylchromane-2-carboxylic acid, reference compound]

SMILES | EC50 [µM]
COc1ccc(O)c(C(C)(C)C)c1 [BHA, 2(3)-tert-butylhydroquinone monomethyl ether, reference compound] | 10 to 50
